From US20190209581A1, “DOSAGE REGIMEN FOR TREATMENT OF SOLID TUMORS” (Eli Lilly and Company, priority 2016, published 2019)
Entries after “also recorded” stand apart in the source; their conditions may differ.

How the values were obtained:
Dogs (beagle) = test: Toxicity study in dogs, oral gavage, daily for 6 days or every other day for 3 doses; assay type: in vivo, dog; details: for Survival: dogs
Method: (§1) A study is carried out to assess the Toxicity and Toxicokinetics of 4,4,4-trifluoro-N-[(1S)-2-[[(7S)-5-(2-hydroxyethyl)-6-oxo-7H-pyrido[2,3-d][3]benzazepin-7-yl]amino]-1-methyl-2-oxo-ethyl]butanamide in dogs given oral gavage doses of 0 or 1.3 mg/kg once daily for 6 days or 0.3 or 3 mg/kg every other day for a total of 3 doses. 4,4,4-Trifluoro-N-[(1S)-2-[[(7S)-5-(2-hydroxyethyl)-6-oxo-7H-pyrido[2,3-d][3]benzazepin-7-yl]amino]-1-methyl-2-oxo-ethyl]butanamide is combined with a vehicle comprising 1% carboxymethylcellulose sodium, 0.25% polysorbate 80 and 0.05% Dow Corning® Antifoam 1510-US in purified water. Dogs (beagle), Covance Research Products, 1 animal/sex/group are fed daily (soon after dosing) and are fasted overnight prior to scheduled chemistry blood collections and necropsy. The test compound is administered by oral gavage in a volume of 2 mL/kg body weight. The duration of the study for all groups is 6 days.
Groups 01 and 04: At a minimum, observations are recorded daily before dosing, approximately 1 hour postdose, and in the afternoon, with the following exception: afternoon clinical observations are not recorded on weekends.
Groups 02 and 03: At a minimum, observations are recorded before dosing, approximately 1 hour postdose, and in the afternoon on Days 2 and 6; before dosing and approximately 1 hour postdose on Day 4; and at approximately the same times as Groups 01 and/or 04 on Days 3, 5, and 7.
Animals are weighed on Days 1 and 7.
A qualitative assessment of food consumption is made each day by visual estimation of the amount of food remaining (recorded in increments of 25%).
Groups 01 and 04: Blood samples are collected before dosing on Day 1 and on Day 7 (not dosed on Day 7).
Groups 02 and 03: Blood samples are collected before dosing on Days 1 and 6.
Urine samples are collected from all animals by cystocentesis at the scheduled necropsy.

[1] = Toxicokinetics in Beagle dogs; assay type: in vivo, dog; details: for Cmax: beagle, po
Method: as §1
Groups 01 and 04, Blood is collected at the following times relative to dosing on Day 1: 0.5, 1, 2, 4, 8, and 24 hours postdose.
Groups 02 and 04: Blood is collected at the following times relative to dosing on Days 2 and 6: 0 (predose; Day 6 only), 0.5, 1, 2, 4, 8, 24, 30, and 48 hours postdose.

[2] = Beagle dog, single oral dose 1.3 mg/kg, Subject 0007_M
[3] = Beagle dog, single oral dose 1.3 mg/kg, Subject 0008_F
[4] = Beagle dogs, multiple oral doses (3 doses/week), 0.3 mpk, mean n = 2
[5] = Beagle dogs, multiple oral doses (3 doses/week), 3 mpk, mean n = 2
[6] = Beagle dogs, single oral dose 1.3 mg/kg, Mean, n = 2
[7] = Beagle dogs, single oral dose, 0.3 mpk, mean n = 2
[8] = Beagle dogs, single oral dose, 3 mpk, mean n = 2

With `C[C@H](NC(=O)CCC(F)(F)F)C(=O)N[C@@H]1C(=O)N(CCO)c2ncccc2-c2ccccc21` [Compound 1, 4,4,4-trifluoro-N-[(1S)-2-[[(7S)-5-(2-hydroxyethyl)-6-oxo-7H-pyrido[2,3-d][3]benzazepin-7-yl]amino]-1-methyl-2-oxo-ethyl]butanamide] the Compound-related signs (Dogs (beagle); both, beagle, dog, in vivo, 1.3 mg/kg, 6 days) was “lateral recumbency and labored respiration for the female on Day 7, decreased activity for both animals on Days 6 and 7, and dehydration (decreased skin elasticity) for both animals on Day 7”, the Food consumption (Dogs (beagle); dog, in vivo) was “Decreased food consumption also occurred in all compound-treated groups” and the “Gastrointestinal toxicity, daily versus three times/week at same total weekly dose” value (Dogs (beagle); dog, in vivo) was “more severe gastrointestinal toxicity compared to three times/week dosing”. The “Tolerability of once daily administration at same total weekly dose” value (Dogs (beagle); dog, in vivo) was “once daily administration is not tolerated”, the Compound-related signs (Dogs (beagle); dog, in vivo, 0.3 mg/kg) was “mucoid, and watery feces” and the Pathology findings (Dogs (beagle); dog, in vivo, 0.3 mg/kg) was “adverse inflammatory changes in the large intestine and evidence of systemic inflammation”. The Intestinal changes (Dogs (beagle); dog, in vivo, 1.3 mg/kg) was “up to marked mucoid enteropathy with red fluid intestinal contents, erosion, ulceration, and mostly neutrophilic mixed inflammation”, the “Other symptoms (feces)” value (Dogs (beagle); dog, in vivo, 1.3 mg/kg) was “red, dark (female only), mucoid, and watery (female only), feces” and the Compound-related signs (Dogs (beagle); dog, in vivo, 3 mg/kg) was “red (male only), mucoid, and watery (male only), feces”. The Survival (Dogs (beagle); 1.3 mg/kg daily) was “euthanized following 6 daily doses due to poor condition”, the Survival (Dogs (beagle); 0.3 or 3 mg/kg 3 times/week (Days 2, 4, and 6)) was “survived until the scheduled termination; also recorded: survived until the scheduled necropsy” and the AUC [1, 2] was 4030 ng·h/mL. The Tmax [1, 2] was 30 min, the AUC [1, 3] was 4500 ng·h/mL and the Tmax [1, 3] was 30 min. The AUC [1, 4] was 3070 ng·h/mL, the Tmax [1, 4] was 45 min and the AUC [1, 5] was 14400 ng·h/mL. The Tmax [1, 5] was 45 min, the AUC [1, 6] was 4270 ng·h/mL and the Tmax [1, 6] was 30 min. The AUC [1, 7] was 1290 ng·h/mL, the Tmax [1, 7] was 30 min and the AUC [1, 8] was 5860 ng·h/mL. For the same compound, the Tmax [1, 8] was 30 min, the Cmax ([1]; both sexes, dog, blood, 1.3 mg/kg, Beagle dogs, single oral dose 1.3 mg/kg, Mean, n = 2) was 1940 ng/mL and the Cmax ([1]; both sexes, dog, in vivo, 0.3 mg/kg, Beagle dogs, multiple oral doses (3 doses/week), 0.3 mpk, mean n = 2) was 2460 ng/mL. For the same compound, the Cmax ([1]; both sexes, dog, in vivo, 0.3 mg/kg, Beagle dogs, single oral dose, 0.3 mpk, mean n = 2) was 309 ng/mL, the Cmax ([1]; both sexes, dog, in vivo, 3 mg/kg, Beagle dogs, multiple oral doses (3 doses/week), 3 mpk, mean n = 2) was 4530 ng/mL and the Cmax ([1]; both sexes, dog, in vivo, 3 mg/kg, Beagle dogs, single oral dose, 3 mpk, mean n = 2) was 2730 ng/mL. The “24 hour drug concentrations” value ([1]; dog, daily and TIW regimens) was “minimal”, the Cmax ([1]; female, dog, blood, 1.3 mg/kg, Beagle dog, single oral dose 1.3 mg/kg, Subject 0008_F) was 2070 ng/mL and the Cmax ([1]; male, dog, blood, 1.3 mg/kg, Beagle dog, single oral dose 1.3 mg/kg, Subject 0007_M) was 1800 ng/mL.
